Reference: patent publication US6573255B1, “Vitamin D analogues” (Leo Pharmaceutical Products Ltd., A/S, priority 1999, dated 2003)
Like-named read-outs stand apart in the source and are kept apart here.

Experiments:
[1] = calcemic activity, rat calciuric model (urinary excretion of calcium)
Description: (§1) The present invention provides a hitherto undisclosed series of vitamin D analogues which is characterised by the presence of an additional hydroxy group or halogen atom in the 26 position of the side chain.

U937 leukemia cell = U937 leukemia cell assay (antiproliferative activity); type: cell-based; details: for U937, -log IC50: U937 leukemia cells; for U937, rel.: geometric mean of the ratios relative to 1α,25(OH)2D3, higher = more potent
Description: as §1

HaCaT = HaCaT assay, a psoriasis model; type: cell-based; details: for HaCaT, rel.: geometric mean of the ratios relative to 1α,25(OH)2D3, higher = more potent; for HaCaT, -log IC50: HaCaT cells
Description: as §1

[2] = test system: MCF-7 mammary cancer cell; assay: MCF-7 mammary cancer cell assay (antiproliferative activity); type: cell-based; details: for MCF-7, -log IC50: MCF-7 mammary cancer cells; for MCF-7, rel.: geometric mean of the ratios relative to 1α,25(OH)2D3, higher = more potent
Description: as §1

[3] = in vitro model of metabolic stability, rat liver homogenate S-9; type: in vitro ADME
Description: Another problem using vitamin D analogues in the non-topical treatment of hyperproliferative diseases, such as cancer, is metabolic stability in vivo. This stability has to be above a certain minimum level, for a compound to be used in practical therapy.

[4] = test system: different types of cancer cells; details: brain glial tumor, MCF-7, NB4, HL-60, acute myeloid leukemia, MG-63 cells; cited from earlier work
human carcinoma cells = details: in vitro; cited from earlier work
mammary tumours = details: rats with mammary tumours, 1 μg/kg body weight for 28 days; cited from earlier work
[5] = chronically uraemic rats with secondary hyperparathyroidism; cited from earlier work
[6] = relative to 1α,25(OH)2D3; cited from earlier work

Row | SMILES | Calcem.; in vivo ([1]; rat, in vivo) | U937, -log IC50 (U937 leukemia cell) | U937, rel. (U937 leukemia cell) | HaCaT, rel. (HaCaT) | MCF-7, -log IC50 [2] | MCF-7, rel. [2] | T½ ([3]; rat liver homogenate S-9) | Calcem.; in vivo ([1]; rat calciuric model, geometric mean of the ratios relative to 1α,25(OH)2D3) | inhibitory activity on proliferation of cancer cells [4] | HaCaT, -log IC50 (HaCaT) | inhibiting the invasiveness of human carcinoma cells (human carcinoma cells) | reduction of the initial tumour volume (mammary tumours) | serum calcium concentration (mammary tumours) | plasma PTH level [5] | plasma phosphate level [5] | calcemic vitamin D activity, urinary excretion of calcium in rats, % of that of 1α,25(OH)2D3 [6] | S-9, metab. in vitr.: fraction left after 1 hour incubation ([3]; rat liver homogenate S-9, 1 hour incubation) | stability in in vitro model of metabolic stability ([3]; rat liver homogenate S-9, compared to seocalcitol and 1α,25(OH)2D3) | S-9, metab. in vitr.: fraction left after 1 hour incubation [3] | half-life ([3]; rat)
1 | C=C1/C(=C\C=C2/CCC[C@]3(C)[C@@H]([C@H](C)CCCC(C)(C)O)CC[C@@H]23)C[C@@H](O)C[C@@H]1O [1α,25(OH)2D3] | 1.0 | 7.5 ± 0.3 | 1.0 | 1.0 | 7.7 ± 0.3 | 1.0 | 2.5 h |  |  |  |  |  |  |  |  |  |  |  |  | 
2 | C=C1C(=CC=C2CCCC3(C)C2CCC3C(C)C(C#CCC(O)(CC)CC)OCC)CC(O)CC1O (stereo not drawn) [CB1093, 20-epi-22-ethoxy-23-yne-24a, 26a, 27a, trishomo-1α,25(OH)2D3 vitamin D3] |  | 9.5 ± 0.1 | 74 | 18 | 10.2 ± 0.3 | 311 |  | 0.27 | potent inhibitory activity | 8.7 ± 0.9 | potent activity | 49% | slight increase | significantly decreased | significantly decreased | 27% | 0.02 | quite low |  | 
3 | C=C1C(=CC=C2CCCC3(C)C2CCC3C(C)C(C#CCC(O)(CC)C(C)O)OCC)CC(O)CC1O [Compound 103, 1(S),3(R)-Dihydroxy-20(R)-(5(S),6(S)-dihydroxy-1(S)-ethoxy-5-ethyl-2-heptyn-1-yl)-9,10-secopregna-5(Z),7(E),10(19)-triene] | 0.11 | 9.0 ± 0.2 | 36 | 38 | 9.9 ± 0.1 | 153 |  |  |  | 9.0 ± 0.3 |  |  |  |  |  |  |  |  | 0.43 | 
4 | C=C1/C(=C\C=C2/CCC[C@]3(C)[C@@H]([C@@H](C)[C@@H](C#CC[C@@](O)(CC)[C@@H](C)O)OCC)CC[C@@H]23)C[C@@H](O)C[C@@H]1O [Compound 108, 1(S),3(R)-Dihydroxy-20(R)-(5(S),6(R)-dihydroxy-1(S)-ethoxy-5-ethyl-2-heptyn-1-yl)-9,10-secopregna-5(Z),7(E),10(19)-triene] | 0.6 | 8.9 ± 0.2 | 49 | 30 | 9.8 ± 0.2 | 89 |  |  |  | 8.8 ± 0.2 |  |  |  |  |  |  |  |  | 0.29 | 
5 | C=C1/C(=C\C=C2/CCC[C@]3(C)[C@@H]([C@H](C)/C=C/C=C/C(O)(CC)CC)CC[C@@H]23)C[C@@H](O)C[C@@H]1O [seocalcitol] |  |  |  |  |  |  |  |  |  |  |  |  |  |  |  |  |  |  |  | 1.3 h
